Results published in US20200077658A1, “Pesticidal Compounds” (BASF SE, priority 2016, published 2020).

Columns and labels:
Type in all cases: in vivo
[1] = tested on: boll weevil (Anthonomus grandis); test: Action on boll weevil (Anthonomus grandis), 96-well microtiter plate diet test; conditions: 120 h, egg and larval mortality after 5 days, read-out: mortality in comparison with untreated controls
Method: For evaluating control of boll weevil (Anthonomus grandis) the test unit consisted of 96-well-microtiter plates containing an insect diet and 5-10 A. grandis eggs.
The compounds were formulated using a solution containing 75% v/v water and 25% v/v DMSO. Different concentrations of formulated compounds were sprayed onto the insect diet at 5 μl, using a custom built micro atomizer, at two replications.
After application, microtiter plates were incubated at about 25±1° C. and about 75±5% relative humidity for 5 days. Egg and larval mortality was then visually assessed.

[2] = tested on: Silverleaf Whitefly (Bemisia argentifoli) (Adults); test: Action on silverleaf whitefly (Bemisia argentifoli) adults, sprayed cotton plants; conditions: Bemisia argentifolii, 72 h, 3 days after treatment, read-out: mortality in comparison with untreated controls
Method: (§1) The active compounds were formulated by a Tecan liquid handler in 100% cyclohexanone as a 10,000 ppm solution supplied in tubes. The 10,000 ppm solution was serially diluted in 100% cyclohexanone to make interim solutions. These served as stock solutions for which final dilutions were made by the Tecan in 50% acetone:50% water (v/v) into 5 or 10 ml glass vials. A nonionic surfactant (Kinetic®) was included in the solution at a volume of 0.01% (v/v). The vials were then inserted into an automated electrostatic sprayer equipped with an atomizing nozzle for application to plants/insects.
Cotton plants at the cotyledon stage (one plant per pot) were sprayed by an automated electrostatic plant sprayer equipped with an atomizing spray nozzle. The plants were dried in the sprayer fume hood and then removed from the sprayer. Each pot was placed into a plastic cup and about 10 to 12 whitefly adults (approximately 3-5 days old) were introduced. The insects were collected using an aspirator and a nontoxic Tygon® tubing connected to a barrier pipette tip. The tip, containing the collected insects, was then gently inserted into the soil containing the treated plant, allowing insects to crawl out of the tip to reach the foliage for feeding. Cups were covered with a reusable screened lid. Test plants were maintained in a growth room at about […] and about 20-40% relative humidity for 3 days, avoiding direct exposure to fluorescent light (24 hour photoperiod) to prevent trapping of heat inside the cup. Mortality was assessed 3 days after treatment, compared to untreated control plants.

[3] = tested on: tobacco budworm (Heliothis virescens); test: Action on tobacco budworm (Heliothis virescens), 96-well microtiter plate diet test; conditions: 120 h, egg and larval mortality after 5 days, read-out: mortality in comparison with untreated controls
Method: For evaluating control of tobacco budworm (Helliothis virescens) the test unit consisted of 96-well-microtiter plates containing an insect diet and 15-25 H. virescens eggs.
The compounds were formulated using a solution containing 75% v/v water and 25% v/v DMSO. Different concentrations of formulated compounds were sprayed onto the insect diet at 10 μl, using a custom built micro atomizer, at two replications.
After application, microtiter plates were incubated at about 28±1° C. and about 80±5% relative humidity for 5 days. Egg and larval mortality was then visually assessed.

[4] = tested on: Diamond Back Moth (Plutella xylostella); test: Action on diamond back moth (Plutella xylostella), cabbage leaf dip; conditions: foliar, 3rd instar larvae on dipped cabbage leaves, 72 hours after treatment, read-out: mortality in comparison with untreated controls
Method: The active compound is dissolved at the desired concentration in a mixture of 1:1 (vol:vol) distilled water:acetone. Surfactant (Kinetic® HV) is added at a rate of 0.01% (vol/vol).The test solution is prepared at the day of use.
Leaves of cabbage were dipped in test solution and air-dried. Treated leaves were placed in petri dishes lined with moist filter paper and inoculated with ten 3rd instar larvae. Mortality was recorded 72 hours after treatment. Feeding damages were also recorded using a scale of 0-100%.

[5] = tested on: Southern Armyworm (Spodoptera eridania), 2nd Instar Larvae; test: Action on southern armyworm (Spodoptera eridania), 2nd instar larvae, sprayed lima bean plants; conditions: 96 h, 2nd instar larvae on lima bean, 4 days after treatment, read-out: mortality in comparison with untreated controls
Method: as §1, with “into 10” for “into 5”, “or 20” for “or 10”
Lima bean plants (variety Sieva) were grown 2 plants to a pot and selected for treatment at the 1st true leaf stage. Test solutions were sprayed onto the foliage by an automated electrostatic plant sprayer equipped with an atomizing spray nozzle. The plants were dried in the sprayer fume hood and then removed from the sprayer. Each pot was placed into perforated plastic bags with a zip closure. About 10 to 11 armyworm larvae were placed into the bag and the bags zipped closed. Test plants were maintained in a growth room at about 250C and about 20-40% relative humidity for 4 days, avoiding direct exposure to fluorescent light (24 hour photoperiod) to prevent trapping of heat inside the bags. Mortality and reduced feeding were assessed 4 days after treatment, compared to untreated control plants.

[6] = tested on: yellow fever mosquito (Aedes aegypti); test: whole plant or invertebrate; conditions: 48 h, larval mortality visually assessed after 2 days, read-out: mortality in comparison with untreated controls
Method: For evaluating control of yellow fever mosquito (Aedes aegypti) the test unit consisted of 96-well-microtiter plates containing 200 μl of tap water per well and 5-15 freshly hatched A. aegypti larvae.
The active compounds were formulated using a solution containing 75% (v/v) water and 25% (v/v) DMSO. Different concentrations of formulated compounds or mixtures were sprayed onto the insect diet at 2.5 μl, using a custom built micro atomizer, at two replications.
After application, microtiter plates were incubated at 28±1° C., 80±5% RH for 2 days. Larval mortality was then visually assessed.

[7] = tested on: Orchid thrips (Dichromothrips corbetti); test: Action on orchid thrips (Dichromothrips corbetti), floral-immersion technique; conditions: adult thrips, mortality 72 hours after treatment, read-out: mortality in comparison with untreated controls
Method: Dichromothrips corbetti adults used for bioassay were obtained from a colony maintained continuously under laboratory conditions. For testing purposes, the test compound is diluted in a 1:1 mixture of acetone:water (vol:vol), plus Kinetic® HV at a rate of 0.01% v/v.
Thrips potency of each compound was evaluated by using a floral-immersion technique. All petals of individual, intact orchid flowers were dipped into treatment solution and allowed to dry in Petri dishes. Treated petals were placed into individual re-sealable plastic along with about 20 adult thrips. All test arenas were held under continuous light and a temperature of about 28° C. for duration of the assay. After 3 days, the numbers of live thrips were counted on each petal. The percent mortality was recorded 72 hours after treatment.

CC(/C=N/NC(=S)Nc1ccccc1C(C)C)=C\c1cnc(N(C)c2ccc(OC(F)(F)F)cc2)c(N(C)C)c1 [Compound C-8, 1-[(E)-[(E)-3-[5-(dimethylamino)-6-[N-methyl-4-(trifluoromethoxy)anilino]-3-pyridyl]-2-methyl-prop-2-enylidene]amino]-3-(2-isopropylphenyl)thiourea]
≥ 75%: mortality at 800 ppm [1] | mortality at 300 ppm [2] | mortality at 800 ppm [3] | mortality at 500 ppm [4] | mortality at 300 ppm [5]

CC(/C=N/NC(=S)Nc1ccccc1C(C)C)=C\c1cnc(N(C)c2ccc(OC(F)(F)F)cc2)nc1C [Compound C-16, 1-(2-isopropylphenyl)-3-[(E)-[(E)-2-methyl-3-[4-methyl-2-[N-methyl-4-(trifluoromethoxy)anilino]pyrimidin-5-yl]prop-2-enylidene]amino]thiourea]
≥ 75%: mortality at 800 ppm [6] | mortality at 500 ppm [7] | mortality at 800 ppm [1] | mortality at 300 ppm [2] | mortality at 800 ppm [3] | mortality at 500 ppm [4] | mortality at 300 ppm [5]

CC(/C=N/N=C1\SCC(=O)N1c1ccccc1C(C)C)=C\c1ccc(N(C)c2ccc(OC(F)(F)F)cc2)nc1 [Compound C-12, (2Z)-3-(2-isopropylphenyl)-2-[(E)-[(E)-2-methyl-3-[6-[N-methyl-4-(trifluoromethoxy)anilino]-3-pyridyl]prop-2-enylidene]hydrazono]thiazolidin-4-one]
≥ 75%: mortality at 800 ppm [6] | mortality at 500 ppm [7] | mortality at 800 ppm [1] | mortality at 300 ppm [2] | mortality at 800 ppm [3] | mortality at 500 ppm [4] | mortality at 300 ppm [5]

CO[C@@H]1[C@@H](OC)[C@@H](OC)C(O/N=C/C(C)=C/c2cnc(N(C)c3ccc(OC(F)(F)F)cc3)nc2)O[C@H]1C (stereo partly drawn) [Compound C-23, N-methyl-5-[(E,3E)-2-methyl-3-[(3R,4R,5S,6S)-3,4,5-trimethoxy-6-methyl-tetrahydropyran-2-yl]oxyimino-prop-1-enyl]-N-[4-(trifluoromethoxy)phenyl]pyrimidin-2-amine]
≥ 75%: mortality at 800 ppm [6] | mortality at 500 ppm [7] | mortality at 800 ppm [1] | mortality at 300 ppm [2] | mortality at 800 ppm [3] | mortality at 500 ppm [4] | mortality at 300 ppm [5]

CC(/C=N/NC(=S)Nc1ccccc1C(C)C)=C\c1ccc(N(C)c2ccc(OC(F)(F)F)cc2)nc1 [Compound C-15, 1-(2-isopropylphenyl)-3-[(E)-[(E)-2-methyl-3-[6-[N-methyl-4-(trifluoromethoxy)anilino]-3-pyridyl]prop-2-enylidene]amino]thiourea]
≥ 75%: mortality at 500 ppm [7] | mortality at 800 ppm [1] | mortality at 300 ppm [2] | mortality at 800 ppm [3] | mortality at 500 ppm [4] | mortality at 300 ppm [5]

CC(/C=N/NC(=S)Nc1ccccc1C(C)C)=C\c1cnc(N(C)c2ccc(OC(F)(F)F)cc2)nc1 [Compound C-6, 1-(2-isopropylphenyl)-3-[(E)-[(E)-2-methyl-3-[2-[N-methyl-4-(trifluoromethoxy)anilino]pyrimidin-5-yl]prop-2-enylidene]amino]thiourea]
≥ 75%: mortality at 800 ppm [6] | mortality at 500 ppm [7] | mortality at 800 ppm [1] | mortality at 300 ppm [2] | mortality at 800 ppm [3] | mortality at 500 ppm [4] | mortality at 300 ppm [5]

CC(/C=N/N=C1\SCC(=O)N1c1ccccc1C(C)C)=C\c1cnc(Nc2ccc(OC(F)(F)F)cc2)nc1 [Compound C-3, (2Z)-3-(2-isopropylphenyl)-2-[(E)-[(E)-2-methyl-3-[2-[4-(trifluoromethoxy)anilino]pyrimidin-5-yl]prop-2-enylidene]hydrazono]thiazolidin-4-one]
≥ 75%: mortality at 800 ppm [6] | mortality at 500 ppm [7] | mortality at 800 ppm [1] | mortality at 300 ppm [2] | mortality at 800 ppm [3] | mortality at 500 ppm [4] | mortality at 300 ppm [5]

CC(/C=N/NC(=S)Nc1ccccc1C(C)C)=C\c1cnc(Nc2ccc(OC(F)(F)F)cc2)nc1 [Compound C-1, 1-(2-isopropylphenyl)-3-[(E)-[(E)-2-methyl-3-[2-[4-(trifluoromethoxy)anilino]pyrimidin-5-yl]prop-2-enylidene]amino]thiourea]
≥ 75%: mortality at 800 ppm [6] | mortality at 500 ppm [7] | mortality at 800 ppm [1] | mortality at 800 ppm [3] | mortality at 500 ppm [4] | mortality at 300 ppm [5]

Cc1nc(N(C)c2ccc(OC(F)(F)F)cc2)ncc1CC(C)/C=N/NC(=S)Nc1ccccc1C(C)C (stereo not shown) [Compound C-22, 1-(2-isopropylphenyl)-3-[(E)-[2-methyl-3-[4-methyl-2-[N-methyl-4-(trifluoromethoxy)anilino]pyrimidin-5-yl]propylidene]amino]thiourea]
≥ 75%: mortality at 800 ppm [1] | mortality at 300 ppm [2] | mortality at 800 ppm [3]

CC(/C=N/NC(=S)Nc1ccccc1C(C)C)=C\c1ccc(N(C)c2ccc(OC(F)(F)F)cc2)nn1 [Compound C-26, 1-(2-isopropylphenyl)-3-[(E)-[(E)-2-methyl-3-[6-[N-methyl-4-(trifluoromethoxy)anilino]pyridazin-3-yl]prop-2-enylidene]amino]thiourea]
≥ 75%: mortality at 500 ppm [7] | mortality at 800 ppm [1] | mortality at 300 ppm [2] | mortality at 800 ppm [3] | mortality at 500 ppm [4] | mortality at 300 ppm [5]

CC(/C=N/N=C1\SCC(=O)N1c1ccccc1C(C)C)=C\c1cnc(N(C)c2ccc(OC(F)(F)F)cc2)c(N(C)C)c1 [Compound C-9, (2Z)-2-[(E)-[(E)-3-[5-(dimethylamino)-6-[N-methyl-4-(trifluoromethoxy)anilino]-3-pyridyl]-2-methyl-prop-2-enylidene]hydrazono]-3-(2-isopropylphenyl)thiazolidin-4-one]
≥ 75%: mortality at 800 ppm [6] | mortality at 500 ppm [7] | mortality at 800 ppm [1] | mortality at 800 ppm [3] | mortality at 500 ppm [4] | mortality at 300 ppm [5]
